Source: patent US20060069132A1, “Azolecarboxamide herbicides” (priority 2004, published 2006)
Read-outs that look alike come from different tables or passages of the source.

What was measured:
johnsongrass = assay: Test C pre-/postemergence herbicide test; type: in vivo, Sorghum halepense
Summary of the method: (§1)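 Greenhouse-grown plants were evaluated visually 12 to 14 days after treatment, with 100 meaning complete control and 0 no effect. Application was preemergence, or postemergence at 2 to 18 cm.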

eastern black nightshade = assay: Test C pre-/postemergence herbicide test; type: in vivo, Solanum ptycanthum
Summary of the method: as §1

velvetleaf = assay: Test B pre-/postemergence herbicide test; type: in vivo, Abutilon theophrasti; details: for Velvetleaf plant response rating: postemergence, visual rating
Summary of the method: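 Response was scored visually 13 to 15 days after treatment against untreated greenhouse controls, 0 meaning no effect and 100 complete control. Formulations (solvent mixture plus surfactant) went onto soil after planting, onto foliage of 1- to 4-leaf plants, and onto 2-leaf plants in a flooded paddy set including rice and barnyardgrass.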

barnyardgrass = assay: Test A pre-/postemergence herbicide test; type: in vivo, Echinochloa crus-galli; details: for pest or weed control at 500 g/ha / pest or weed control at 2000 g/ha: Echinochloa crus-galli, 240 h
Summary of the method: (§2)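 Plants are held in greenhouse about ten days after treatment, then compared with untreated controls and scored 0 (no effect) to 100 (complete control). Preemergence dosing is a directed soil spray on sown sandy loam; postemergence dosing is spray to runoff at 2–10 cm height.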

redroot pigweed = assay: Test A pre-/postemergence herbicide test; type: in vivo, Amaranthus retroflexus; details: for pest or weed control at 500 g/ha / pest or weed control at 2000 g/ha: Amaranthus retroflexus, 240 h
Summary of the method: as §2

bermudagrass = assay: Test C pre-/postemergence herbicide test; type: in vivo, Cynodon dactylon
Summary of the method: as §1

cocklebur = assay: Test C pre-/postemergence herbicide test; type: in vivo, Xanthium strumarium
Summary of the method: as §1

large crabgrass = assay: Test A pre-/postemergence herbicide test; type: in vivo, Digitaria sanguinalis; details: for pest or weed control at 500 g/ha / pest or weed control at 2000 g/ha: Digitaria sanguinalis, 240 h
Summary of the method: as §2

soybean = assay: Test C pre-/postemergence herbicide test; type: in vivo, Glycine max
Summary of the method: as §1

[1] = Preemergence, 500 g ai/ha, scale 0 to 100, 0 no effect, 100 complete control
[2] = 62 g ai/ha, preemergence, scale 0 to 100
[3] = 125 g ai/ha, scale 0 (no effect) to 100 (complete control), visual, 12 to 14 days, preemergence
[4] = 250 g ai/ha, scale 0-100, preemergence
[5] = 500 g ai/ha, scale 0 to 100 (0 no effect, 100 complete control), visual, 12 to 14 days, preemergence
[6] = Postemergence, 500 g ai/ha, 0 to 100 scale, 0 no effect, 100 complete control
[7] = Postemergence, 2000 g ai/ha, 0 to 100 scale, 0 no effect, 100 complete control
[8] = Preemergence, 2000 g ai/ha, visual rating, 0 to 100 scale (0 no effect, 100 complete control)
[9] = preemergence, 500 g ai/ha, visual injury, 0 to 100 scale (0 no effect, 100 complete control)

CCNC(=O)c1ccc(F)c(NC(=O)c2cc(C(C)(C)C)nn2CC)c1 [Compound 2, 3-(1,1-dimethylethyl)-1-ethyl-N-[5-[(ethylamino)carbonyl]-2-fluorophenyl]-1H-pyrazole-5-carboxamide]
Plant response rating (0 = no effect, 100 = complete control), Johnsongrass (johnsongrass; 62 g ai/ha, preemergence): 70
Johnsongrass plant response rating (johnsongrass; [1]): 100
pest or weed control at 125 g/ha (johnsongrass; Sorghum halepense, pre-emergence, 125 g ai/ha, scale 0-100, read-out: Plant response rating, Johnsongrass): 90%
pest or weed control at 250 g/ha (johnsongrass; Sorghum halepense, pre-emergence, 250 g ai/ha, scale 0 to 100 (0 no effect, 100 complete control), visual, 12 to 14 days, read-out: Plant response rating, Johnsongrass): 100%
Plant response rating (0 = no effect, 100 = complete control), Nightshade (eastern black nightshade; 62 g ai/ha, preemergence): 100
Nightshade plant response rating (eastern black nightshade; [1]): 100
pest or weed control at 250 g/ha (eastern black nightshade; pre-emergence, 250 g ai/ha, scale 0 to 100 (0 no effect, 100 complete control), visual, 12 to 14 days, read-out: Plant response rating, Nightshade): 100%
pest or weed control at 125 g/ha (velvetleaf; Abutilon theophrasti, post-emergence, 336 h, Postemergence, 125 g ai/ha, scale 0 (no effect) to 100 (complete control), read-out: Velvetleaf plant response rating): 20%
pest or weed control at 500 g/ha (velvetleaf; Abutilon theophrasti, post-emergence, 336 h, Postemergence, 500 g ai/ha, visual rating after 13 to 15 days, scale 0 (no effect) to 100 (complete control), read-out: Plant response rating, Velvetleaf): 50%
pest or weed control at 500 g/ha (velvetleaf; Abutilon theophrasti, pre-emergence, 336 h, Preemergence, 500 g ai/ha, scale 0 to 100, read-out: Velvetleaf plant response rating): 100%
pest or weed control at 500 g/ha (barnyardgrass; post-emergence, Postemergence, 500 g ai/ha, 0 to 100 scale, 0 no effect, 100 complete control, read-out: Plant response rating, Barnyardgrass): 100%
pest or weed control at 2000 g/ha (barnyardgrass; post-emergence, Postemergence, 2000 g ai/ha, 0 to 100 scale, 0 no effect, 100 complete control, read-out: Plant response rating, Barnyardgrass): 100%
pest or weed control at 500 g/ha (barnyardgrass; pre-emergence, Preemergence, 500 g ai/ha, visual rating, 0 to 100 scale (0 no effect, 100 complete control), read-out: Barnyardgrass plant response rating): 100%
pest or weed control at 2000 g/ha (barnyardgrass; pre-emergence, Preemergence, 2000 g ai/ha, 0 to 100 scale, 0 no effect, 100 complete control, read-out: Barnyardgrass plant response rating): 100%
pest or weed control at 500 g/ha (redroot pigweed; post-emergence, Postemergence, 500 g ai/ha, 0 to 100 scale, 0 no effect, 100 complete control, read-out: Plant response rating, Pigweed): 100%
pest or weed control at 2000 g/ha (redroot pigweed; post-emergence, Postemergence, 2000 g ai/ha, 0 to 100 scale, 0 no effect, 100 complete control, read-out: Plant response rating, Pigweed): 100%
pest or weed control at 500 g/ha (redroot pigweed; pre-emergence, Preemergence, 500 g ai/ha, visual rating, 0 to 100 scale (0 no effect, 100 complete control), read-out: Pigweed plant response rating): 100%
pest or weed control at 2000 g/ha (redroot pigweed; pre-emergence, Preemergence, 2000 g ai/ha, 0 to 100 scale, 0 no effect, 100 complete control, read-out: Pigweed plant response rating): 100%
Plant response rating (0 = no effect, 100 = complete control), Bermudagrass (bermudagrass; 62 g ai/ha, preemergence): 85
pest or weed control at 125 g/ha (bermudagrass; Cynodon dactylon, pre-emergence, 312 h, 125 g ai/ha, scale 0-100, read-out: Plant response rating, Bermudagrass): 90%
pest or weed control at 250 g/ha (bermudagrass; Cynodon dactylon, pre-emergence, 312 h, 250 g ai/ha, scale 0 to 100 (0 no effect, 100 complete control), visual, 12 to 14 days, read-out: Plant response rating, Bermudagrass): 95%
pest or weed control at 500 g/ha (bermudagrass; Cynodon dactylon, pre-emergence, 312 h, Preemergence, 500 g ai/ha, scale 0 to 100, 0 no effect, 100 complete control, read-out: Bermudagrass plant response rating): 95%
Plant response rating (0 = no effect, 100 = complete control), Cocklebur (cocklebur; 62 g ai/ha, preemergence): 5
pest or weed control at 125 g/ha (cocklebur; Xanthium strumarium, pre-emergence, 312 h, 125 g ai/ha, scale 0-100, read-out: Plant response rating, Cocklebur): 5%
pest or weed control at 250 g/ha (cocklebur; Xanthium strumarium, pre-emergence, 312 h, 250 g ai/ha, scale 0 to 100 (0 no effect, 100 complete control), visual, 12 to 14 days, read-out: Plant response rating, Cocklebur): 65%
pest or weed control at 500 g/ha (cocklebur; Xanthium strumarium, pre-emergence, 312 h, Preemergence, 500 g ai/ha, scale 0 to 100, 0 no effect, 100 complete control, read-out: Cocklebur plant response rating): 80%
pest or weed control at 500 g/ha (large crabgrass; post-emergence, Postemergence, 500 g ai/ha, 0 to 100 scale, 0 no effect, 100 complete control, read-out: Plant response rating, Crabgrass, Large): 85%
pest or weed control at 2000 g/ha (large crabgrass; post-emergence, Postemergence, 2000 g ai/ha, 0 to 100 scale, 0 no effect, 100 complete control, read-out: Plant response rating, Crabgrass, Large): 100%
pest or weed control at 500 g/ha (large crabgrass; pre-emergence, Preemergence, 500 g ai/ha, visual rating, 0 to 100 scale (0 no effect, 100 complete control), read-out: Crabgrass, Large plant response rating): 100%
pest or weed control at 2000 g/ha (large crabgrass; pre-emergence, Preemergence, 2000 g ai/ha, 0 to 100 scale, 0 no effect, 100 complete control, read-out: Crabgrass, Large plant response rating): 100%
Plant response rating (0 = no effect, 100 = complete control), Soybean (soybean; 62 g ai/ha, preemergence): 30
plant injury at 250 g/ha (soybean; Glycine max, pre-emergence, 250 g ai/ha, scale 0 to 100 (0 no effect, 100 complete control), visual, 12 to 14 days, read-out: Plant response rating, Soybean): 100%
Soybean plant response rating (soybean; [1]): 100

CCNC(=O)c1cccc(NC(=O)c2sc(C(C)(C)C)nc2CC)c1 [Compound 210]
Plant response rating, Johnsongrass (johnsongrass; [2]): 5
Plant response rating, Johnsongrass (johnsongrass; [3]): 20
Plant response rating, Johnsongrass (johnsongrass; [4]): 50
Plant response rating, Johnsongrass (johnsongrass; [5]): 70
Plant response rating, Nightshade (eastern black nightshade; [2]): 80
Plant response rating, Nightshade (eastern black nightshade; [3]): 100
Plant response rating, Nightshade (eastern black nightshade; [4]): 100
Plant response rating, Nightshade (eastern black nightshade; [5]): 100
Velvetleaf plant response rating (0 to 100 scale) (velvetleaf; 125 g ai/ha, 0 = no effect, 100 = complete control, preemergence): 10
Plant response rating, Velvetleaf (velvetleaf; 500 g ai/ha, visual rating 0-100, 0 no effect, 100 complete control, preemergence): 70
Velvetleaf plant response rating (velvetleaf; 125 g ai/ha, scale 0 (no effect) to 100 (complete control)): 30
Velvetleaf plant response rating (velvetleaf; 500 g ai/ha, scale 0 (no effect) to 100 (complete control)): 70
Barnyardgrass plant response rating (barnyardgrass; [6]): 80
Plant response rating, Barnyardgrass (barnyardgrass; [7]): 80
Barnyardgrass plant response rating (barnyardgrass; [8]): 90
Barnyardgrass plant response rating (barnyardgrass; [9]): 85
Pigweed plant response rating (redroot pigweed; [6]): 60
Plant response rating, Pigweed (redroot pigweed; [7]): 80
Pigweed plant response rating (redroot pigweed; [8]): 100
Pigweed plant response rating (redroot pigweed; [9]): 100
Plant response rating, Bermudagrass (bermudagrass; 62 g ai/ha, preemergence, scale 0 to 100, 0 no effect, 100 complete control): 80
Plant response rating, Bermudagrass (bermudagrass; [3]): 80
Plant response rating, Bermudagrass (bermudagrass; [4]): 100
Bermudagrass plant response rating (bermudagrass; [1]): 100
Plant response rating, Cocklebur (cocklebur; [2]): 0
Plant response rating, Cocklebur (cocklebur; [3]): 0
Plant response rating, Cocklebur (cocklebur; [4]): 0
Cocklebur plant response rating (cocklebur; [1]): 5
Crabgrass, Large plant response rating (large crabgrass; [6]): 40
Plant response rating, Crabgrass, Large (large crabgrass; [7]): 65
Crabgrass, Large plant response rating (large crabgrass; [8]): 100
Crabgrass, Large plant response rating (large crabgrass; [9]): 90
Plant response rating, Soybean (soybean; [2]): 0
Plant response rating, Soybean (soybean; [3]): 0
Plant response rating, Soybean (soybean; [4]): 0
Plant response rating, Soybean (soybean; [5]): 0
